The source of these data is patent US20160214958A1, “COMPOUNDS AND USE FOR TREATING CANCER” (GLIONOVA AB, priority 2013, published 2016).

A word on the EC50: it is the concentration needed to bring the measured effect to its halfway point.

The test system of data set [1] is glioma stem cell line U3013. Put plainly: In vitro cancer cell and CSC viability assay (ATP quantification, CellTiterGlo). It is filed as cell-based, human. To be noted: for IC95 for cell death: glioblastoma cells (U3013); for EC50: Homo sapiens, U3013, 24 hours exposure, read-out: In vitro efficacy (viability) EC50; for potency with respect to S10 (viability): individual isomers of racemic S10. As to the method:
The ability of Examples S1-S23 to selectively induce cytotoxicity in glioma/glioblastoma cancer cells or glioma/glioblastoma cancer stem cells was determined by quantification of ATP production in glioma stem cell line U3013 in the presence of using CellTiterGlo reagent (Promega). Cells were exposed to compound in serial dilution in the range 1 nM to 50 µM for 24 hours and viability assessed with respect to negative control (dmso, no cell death) and positive control (staurosporine, full cell death). […] The EC50 of S10 remained largely similar at 2, 3 and 4 days of incubation. […] The individual isomers (S21-S23) of racemic S10 were evaluated in order to determine the enantiospecific pharmacology of the individual isomers.
Negative (100% DMSO) and positive (10 mM S10 in 100% DMSO) controls were placed in rows 1-4 and 5-8, respectively, of column 12. The wells were diluted with 190 μl of the corresponding growth media and 5 μl of each well of compound solution transferred to quadruplicate wells of a sterile 384-well black clear bottom plate (BD Falcon) containing GSC at 70% confluency in 45 μl growth media. The plate was incubated for 24 hours, after which the plate was removed from the incubator and each well imaged in bright-field using an Operetta Imaging system (PerkinElmer) at 37° C. and 5% CO2 to determine vacuole accumulation at each concentration. The plate was then allowed to cool to room temperature and each well treated with 25 μl freshly CellTiterGlo (Promega) reagent. The plate was shaken for 15 minutes and luminescence measured using a Victor3 (Perkin Elmer) microtiterplate reader. Total luminescence was normalized relative to control and curve fitting performed using GraphPad Prism (v6.02) software.

In data set [2] the test system is U87 glioma cell. To be noted: at concentrations of 10 micromolar; cited from earlier work.
Data set [3] is described as follows: Pharmacokinetic evaluation of Vacquinol-1 stereoisomers, plasma and brain. The conditions noted are these: for Kp / AUC(0-t): NMRI (single stereoisomers SR/RS), BALB/c (racemate), mouse; for Kp: brain and plasma, 20 mg/kg, after oral dosing, read-out: Cmax exposures ratio (Cmax(brain)/Cmax(plasma)); for AUC(0-t): brain, read-out: AUClast Brain. In kind it is in vivo, NMRI (SR/RS) or BALB/c (Vrac) mice. Here is the method: The pharmacokinetics of Vacquinol-1 (racemic), Vacquinol-1RS and Vacquinol-1SR, were determined in NMRI (SR/RS) or BALB/c (Vrac) mice following single intravenous (i.v.) or per oral (p.o) administration of 2 or 20 mg/kg Vacquinol-1, respectively. Blood and brain samples were taken from animals at the following nominal time points: 15, 30, and 60 minutes, and 2, 4, 6, 8, 24, 48, 72 and 144 hours after dosing (n=3/time-point). Bioanalytical quantification of Vacquinol-1 was analysed in plasma and brain samples by a UPLC-MS/MS.
Pharmacokinetics were calculated by non-compartmental analysis (NCA) from composite (mean) profiles. Nominal sampling times and dose levels have been used for the NCA calculations.

Data set [4] has as its system glioma stem cell line U3013. Put plainly: In vitro cancer cell and CSC viability assay (ATP quantification, CellTiterGlo). In kind it is cell-based. To be noted: Homo sapiens; 3000 cells/cm2, after 24 hours; read-out: EC50, viability of GSCs. For orientation: Cellular ATP, detected with luciferase, serves as a proxy for viable cell number.

Where two headings read alike, the source gives them in different places.

As for `O[C@@H](c1cc(C(F)(F)F)nc2c(C(F)(F)F)cccc12)[C@H]1CCCCN1` (racemic) [mefloquine, (2,8-bis(trifluoromethyl)quinolin-4-yl)(piperidin-2-yl)methanol, reference compound], the “IC95 for cell death” value in data set [1] is 25.2 µM. For the same molecule, the “reduction of U87 glioma cell viability” value in data set [2] is given as “roughly 50%”.

`O[C@H](c1cc(-c2ccc(Cl)cc2)nc2ccccc12)[C@@H]1CCCCN1` [Compound S20, (R)-(2-(4-chlorophenyl)quinolin-4-yl)((S)-piperidin-2-yl)methanol]: in data set [1], the concentration giving a half-maximal response (EC50) was 1720 nM, the “IC95 for cell death” value came to 8.9 µM and the “potency with respect to S10 (viability)” value was “equal or increased potency”. Also, in data set [3] (2 mg/kg i.v., mice), the “AUClast Plasma” value came to 62 µg·h/mL, the “Cmax Brain” value is on record as 1970 ng/mL, the “tlast Brain” value is 144 h and the “tlast Plasma” value is 144 h. For the same molecule, in data set [3] (20 mg/kg p.o., mice), the “AUClast Plasma” value came to 246 µg·h/mL, the “Cmax Brain” value is 4840 ng/mL, the “tlast Brain” value is given as 144 h and the “tlast Plasma” value turned out to be 144 h. In data set [3], the Kp stood at 2.2. In addition, the AUC(0-t) in data set [3] (iv, 2 mg/kg i.v., mice) came out at 52700 ng·h/mL. The AUC(0-t) in data set [3] (po, 20 mg/kg p.o., mice) was 400000 ng·h/mL.

For the molecule `O[C@@H](c1cc(-c2ccc(Cl)cc2)nc2ccccc12)[C@H]1CCCCN1` [Compound S21, (S)-(2-(4-chlorophenyl)quinolin-4-yl)((R)-piperidin-2-yl)methanol], in data set [1], the half-maximal effective concentration (EC50) turned out to be 2670 nM and the “potency with respect to S10 (viability)” value was “equal or increased potency”. Besides, in data set [3] (2 mg/kg i.v., mice), the “AUClast Plasma” value came to 14.1 µg·h/mL, the “Cmax Brain” value came to 777 ng/mL, the “tlast Brain” value is 72 h and the “tlast Plasma” value was found to be 72 h. Besides, in data set [3] (20 mg/kg p.o., mice), the “AUClast Brain” value is 157 µg·h/mL, the “AUClast Plasma” value is 183 µg·h/mL, the “Cmax Brain” value is reported as 1490 ng/mL and the “tlast Brain” value amounted to 144 h. Moreover, the “tlast Plasma” value in data set [3] (20 mg/kg p.o., mice) was 144 h. Moreover, the Kp in data set [3] worked out at 0.7. Moreover, the AUC(0-t) in data set [3] (iv, 2 mg/kg i.v., mice) was 9050 ng·h/mL.

Turning to `Cn1nnc2c(C(N)=O)ncn2c1=O` [temozolomide, reference compound], the 50% effective concentration (EC50) in data set [4] came out at 139 µM.
